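Growth conditions: 96-well plates. Treatment: test compound, 48 hours, 5 concentrations. Analysis: linear interpolation between bracketing concentrations; unreached endpoints set to highest concentration. GI50 is the concentration that inhibits growth by half. TGI denotes the concentration required for complete inhibition of growth.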
Tests used:
Assay in all cases: inhibition of tumour cell growth, NCI panel, 48 h
786-0 renal = tested on: 786-0 renal
A498 renal = tested on: A498 renal
A549 NSCLC = tested on: A549 NSCLC
ACHN renal = tested on: ACHN renal
BT-549 breast = tested on: BT-549 breast
CCRF-CEM leukemia = tested on: CCRF-CEM leukemia
COLO 205 colon = tested on: COLO 205 colon
DU-145 prostate = tested on: DU-145 prostate
EKVX NSCLC = tested on: EKVX NSCLC
HCC-2998 colon = tested on: HCC-2998 colon
HCT-116 colon = tested on: HCT-116 colon
HCT-15 colon = tested on: HCT-15 colon
HOP-62 NSCLC = tested on: HOP-62 NSCLC
HOP-92 NSCLC = tested on: HOP-92 NSCLC
HS 578T breast = tested on: HS 578T breast
HT29 colon = tested on: HT29 colon
IGROV1 ovarian = tested on: IGROV1 ovarian
K-562 leukemia = tested on: K-562 leukemia
KM12 colon = tested on: KM12 colon
LOX IMVI melanoma = tested on: LOX IMVI melanoma
M14 melanoma = tested on: M14 melanoma
MALME-3M melanoma = tested on: MALME-3M melanoma
MDA-MB-231 breast = tested on: MDA-MB-231 breast
MDA-MB-435 = tested on: MDA-MB-435
MOLT-4 leukemia = tested on: MOLT-4 leukemia
NCI-H23 lung = tested on: NCI-H23 lung
NCI-H460 lung = tested on: NCI-H460 lung
NCI-H522 lung = tested on: NCI-H522 lung
NCI/ADR-RES ovarian = tested on: NCI/ADR-RES ovarian
OVCAR-3 ovarian = tested on: OVCAR-3 ovarian
OVCAR-4 ovarian = tested on: OVCAR-4 ovarian
OVCAR-5 ovarian = tested on: OVCAR-5 ovarian
OVCAR-8 ovarian = tested on: OVCAR-8 ovarian
PC-3 prostate = tested on: PC-3 prostate
RPMI-8226 leukemia = tested on: RPMI-8226 leukemia
RXF 393 renal = tested on: RXF 393 renal
SF-268 CNS = tested on: SF-268 CNS
SF-295 CNS = tested on: SF-295 CNS
SF-539 CNS = tested on: SF-539 CNS
SK-MEL-2 melanoma = tested on: SK-MEL-2 melanoma
SK-MEL-28 melanoma = tested on: SK-MEL-28 melanoma
SK-MEL-5 melanoma = tested on: SK-MEL-5 melanoma
SK-OV-3 ovarian = tested on: SK-OV-3 ovarian
SN12C renal = tested on: SN12C renal
SNB-19 CNS = tested on: SNB-19 CNS
SNB-75 CNS = tested on: SNB-75 CNS
SR leukemia = tested on: SR leukemia
SW-620 colon = tested on: SW-620 colon
T-47D breast = tested on: T-47D breast
U251 CNS = tested on: U251 CNS
UACC-257 melanoma = tested on: UACC-257 melanoma
UACC-62 melanoma = tested on: UACC-62 melanoma
UO-31 renal = tested on: UO-31 renal

O=C1c2cccnc2C(=O)c2c1c(C(=O)NCCCN1CCCCC1)c1ccccn21
GI50 (786-0 renal): 1.18 µM
TGI (786-0 renal): 8.06 µM
GI50 (A498 renal): 1.54 µM
TGI (A498 renal): 3.23 µM
GI50 (A549 NSCLC): 1.25 µM
TGI (A549 NSCLC): 3.8 µM
GI50 (ACHN renal): 0.464 µM
TGI (ACHN renal): 2.84 µM
GI50 (BT-549 breast): 2.47 µM
TGI (BT-549 breast): 6.89 µM
GI50 (CCRF-CEM leukemia): 3.26 µM
TGI (CCRF-CEM leukemia): > 100 µM
GI50 (COLO 205 colon): 0.268 µM
TGI (COLO 205 colon): 0.928 µM
GI50 (DU-145 prostate): 1.2 µM
TGI (DU-145 prostate): 2.61 µM
GI50 (EKVX NSCLC): 1.37 µM
TGI (EKVX NSCLC): 3.2 µM
GI50 (HCC-2998 colon): 0.529 µM
TGI (HCC-2998 colon): 2.04 µM
GI50 (HCT-116 colon): 0.337 µM
TGI (HCT-116 colon): 1.22 µM
GI50 (HCT-15 colon): 0.816 µM
TGI (HCT-15 colon): 2.57 µM
GI50 (HOP-62 NSCLC): 1.08 µM
TGI (HOP-62 NSCLC): 3.18 µM
GI50 (HOP-92 NSCLC): 2.33 µM
TGI (HOP-92 NSCLC): 4.9 µM
GI50 (HS 578T breast): 2.59 µM
TGI (HS 578T breast): 9.75 µM
GI50 (HT29 colon): 0.391 µM
TGI (HT29 colon): 2.92 µM
GI50 (IGROV1 ovarian): 1.23 µM
TGI (IGROV1 ovarian): 3.62 µM
GI50 (K-562 leukemia): 1.22 µM
TGI (K-562 leukemia): > 100 µM
GI50 (KM12 colon): 0.99 µM
TGI (KM12 colon): 10.1 µM
GI50 (LOX IMVI melanoma): 0.49 µM
TGI (LOX IMVI melanoma): 2.03 µM
GI50 (M14 melanoma): 1.15 µM
TGI (M14 melanoma): 2.44 µM
GI50 (MALME-3M melanoma): 0.226 µM
TGI (MALME-3M melanoma): 0.684 µM
GI50 (MDA-MB-231 breast): 0.562 µM
TGI (MDA-MB-231 breast): 7.23 µM
GI50 (MDA-MB-435): 0.403 µM
TGI (MDA-MB-435): 1.52 µM
GI50 (MOLT-4 leukemia): 0.867 µM
TGI (MOLT-4 leukemia): > 100 µM
GI50 (NCI-H23 lung): 0.436 µM
TGI (NCI-H23 lung): 2.75 µM
GI50 (NCI-H460 lung): 0.299 µM
TGI (NCI-H460 lung): 1.46 µM
GI50 (NCI-H522 lung): 1.08 µM
TGI (NCI-H522 lung): 3.45 µM
GI50 (NCI/ADR-RES ovarian): 2.08 µM
TGI (NCI/ADR-RES ovarian): 7.37 µM
GI50 (OVCAR-3 ovarian): 0.321 µM
TGI (OVCAR-3 ovarian): 1.75 µM
GI50 (OVCAR-4 ovarian): 0.31 µM
TGI (OVCAR-4 ovarian): 1.32 µM
GI50 (OVCAR-5 ovarian): 1.85 µM
TGI (OVCAR-5 ovarian): 7.44 µM
GI50 (OVCAR-8 ovarian): 0.75 µM
TGI (OVCAR-8 ovarian): 5.58 µM
GI50 (PC-3 prostate): 1.49 µM
TGI (PC-3 prostate): 7.21 µM
GI50 (RPMI-8226 leukemia): 3.43 µM
TGI (RPMI-8226 leukemia): > 100 µM
GI50 (RXF 393 renal): 1.28 µM
TGI (RXF 393 renal): 3.4 µM
GI50 (SF-268 CNS): 1.25 µM
TGI (SF-268 CNS): 8.3 µM
GI50 (SF-295 CNS): 0.845 µM
TGI (SF-295 CNS): 8.45 µM
GI50 (SF-539 CNS): 1.47 µM
TGI (SF-539 CNS): 3.07 µM
GI50 (SK-MEL-2 melanoma): 2.05 µM
TGI (SK-MEL-2 melanoma): 5.17 µM
GI50 (SK-MEL-28 melanoma): 3.15 µM
TGI (SK-MEL-28 melanoma): 10.5 µM
GI50 (SK-MEL-5 melanoma): 0.36 µM
TGI (SK-MEL-5 melanoma): 1.35 µM
GI50 (SK-OV-3 ovarian): 2.06 µM
TGI (SK-OV-3 ovarian): 6.7 µM
GI50 (SN12C renal): 0.472 µM
TGI (SN12C renal): 1.84 µM
GI50 (SNB-19 CNS): 1.12 µM
TGI (SNB-19 CNS): 2.57 µM
GI50 (SNB-75 CNS): 1.36 µM
TGI (SNB-75 CNS): 2.86 µM
GI50 (SR leukemia): 0.474 µM
TGI (SR leukemia): > 100 µM
GI50 (SW-620 colon): 0.471 µM
TGI (SW-620 colon): 2.14 µM
GI50 (T-47D breast): 1.59 µM
TGI (T-47D breast): 4.34 µM
GI50 (U251 CNS): 1.42 µM
TGI (U251 CNS): 3.21 µM
GI50 (UACC-257 melanoma): 0.813 µM
TGI (UACC-257 melanoma): 2.18 µM
GI50 (UACC-62 melanoma): 0.624 µM
TGI (UACC-62 melanoma): 2.51 µM
GI50 (UO-31 renal): 1.42 µM
TGI (UO-31 renal): 6.71 µM
